Assay results as given in US7238701B2, “Substituted tetrahydrobenzothienopyrimidinamine compounds useful for treating hyper-proliferative disorders” (Bayer Pharmaceuticals Corporation, priority 2003, dated 2007).

Legend:
[1] = test system: A431cells (human epidermoid carcinoma); assay: In vitro tumor cell proliferation assay (Cell Titer-Glo luminescent cell viability), A431 cells; assay type: cell-based; conditions: A-431, 72 h, 72 hours drug exposure, 10% Fetal Bovine Serum, ATP luminescence readout, read-out: IC50 (50% inhibition of cell proliferation)
Excerpt: (§1) In vitro Tumor Cell Proliferation Assay
(§2) The tumor cell proliferation assay used to test the compounds of the present invention involves a readout called Cell Titer-Glow® Luminescent Cell Viability Assay developed by Promega (Cunningham, B A “A Growing Issue: Cell Proliferation Assays, Modern kits ease quantification of cell growth” The Scientist 2001, 15(13), 26, and Crouch, S P et al., “The use of ATP bioluminescence as a measure of cell proliferation and cytotoxicity” Journal of Immunological Methods 1993, 160, 81–88), that measures inhibition of cell proliferation. Generation of a luminescent signal corresponds to the amount of ATP present, which is directly proportional to the number of metabolically active (proliferating) cells.
(§3) A431cells (human epidermoid carcinoma, ATCC # HTB-20) and BT474 (human breast carcinoma, ATCC # CRL-1555) were plated at a density of 2.5×10^3 cells/well in 96 well black-clear bottom tissue culture plates in RPMI media with 10% Fetal Bovine Serum and incubated at 37° C. Twenty-four hours later, test compounds are added at a final concentration range from as high 100 μM to as low 64 pM depend on the activities of the tested compounds in serial dilutions at a final DMSO concentration of 0.1%. Cells were incubated for 72 hours at 37° C. in complete growth media after addition of the test compound. After 72 hours of drug exposure, the plates were equilibrated to room temperature for approximately 30 min. Then, using a Promega Cell Titer Glo Luminescent® assay kit, lysis buffer containing 100 microliters of the enzyme luciferase and its substrate, luciferin mixture, was added to each well. The plates were mixed for 2 min on orbital shaker to ensure cell lysis and incubated for 10 min at room temperature to stabilize luminescence signal. The samples were read on VICTOR 2 using Luminescence protocol, and analyzed with Analyze5 software to generate IC50 values.

[2] = test system: BT474 (human breast carcinoma); assay: In vitro tumor cell proliferation assay (Cell Titer-Glo luminescent cell viability), BT474 cells; assay type: cell-based; conditions: BT-474, 72 hours drug exposure, 10% Fetal Bovine Serum, ATP luminescence readout, read-out: IC50 (50% inhibition of cell proliferation)
Excerpt: as §1, §2, §3

SMILES	IC50 [1] [µM]	IC50 [2] [µM]
COCCC1CCc2c(sc3ncnc(Nc4cccc(Br)c4)c23)C1 (stereo not drawn) [Example 90, N-(3-bromophenyl)-7-(2-methoxyethyl)-5,6,7,8-tetrahydro[1]benzothieno[2,3-d]pyrimidin-4-amine]	< 50	< 50
OCCNCCC1CCc2c(sc3ncnc(Nc4ccc(OCc5ccccn5)c(Cl)c4)c23)C1 (stereo not drawn) [Example 180, 2-{[2-(4-{[3-chloro-4-(pyridin-2-ylmethoxy)phenyl]amino}-5,6,7,8-tetrahydro[1]benzothieno[2,3-d]pyrimidin-7-yl)ethyl]amino}ethanol]	< 50	< 5
Fc1cccc(COc2ccc(Nc3ncnc4sc5c(c34)CCC(CCNCCN3CCOCC3)C5)cc2Cl)c1 (stereo not drawn) [Example 166, N-{3-chloro-4-[(3-fluorobenzyl)oxy]phenyl}-7-{2-[(2-morpholin-4-ylethyl)amino]ethyl}-5,6,7,8-tetrahydro[1]benzothieno[2,3-d]pyrimidin-4-amine]	< 50	< 5
OCCC1CCc2c(sc3ncnc(Nc4ccc(OCc5ccccn5)c(Cl)c4)c23)C1 (stereo not drawn) [Example 174, 2-{4-[3-Chloro-4-(pyridin-2-ylmethoxy)-phenylamino]-5,6,7,8-tetrahydro-benzo[4,5]thieno[2,3-d]pyrimidin-7-yl}-ethanol]	< 50	< 5
COCCN(C)C(=O)C1CCc2c(sc3ncnc(Nc4cccc(Br)c4)c23)C1 (stereo not drawn) [Example 31, 4-[(3-bromophenyl)amino]-N-(2-methoxyethyl)-N-methyl-5,6,7,8-tetrahydro[1]benzothieno[2,3-d]pyrimidine-7-carboxamide]	< 50	< 50
CC(C)(O)CC1CCc2c(sc3ncnc(Nc4cccc(Br)c4)c23)C1 (stereo not drawn) [Example 95, 1-{4-[(3-bromophenyl)amino]-5,6,7,8-tetrahydro[1]benzothieno[2,3-d]pyrimidin-7-yl}-2-methyl-2-propanol]	< 50	< 5
Clc1cc(Nc2ncnc3sc4c(c23)CCC(CCN2CCOCC2)C4)ccc1OCc1ccccn1 (stereo not drawn) [Example 177, [3-Chloro-4-(pyridin-2-ylmethoxy)-phenyl]-[7-(2-morpholin-4-yl-ethyl)-5,6,7,8-tetrahydro-benzo[4,5]thieno[2,3-d]pyrimidin-4-yl]-amine]	< 5	< 5
OCCC1CCc2c(sc3ncnc(Nc4ccc(F)c(Cl)c4)c23)C1 (stereo not drawn) [Example 64, 2-{4-[(3-chloro-4-fluorophenyl)amino]-5,6,7,8-tetrahydro[1]benzothieno[2,3-d]pyrimidin-7-yl}ethanol]	< 50	< 50
CN(C)[C@H]1CCN(CCC2CCc3c(sc4ncnc(Nc5ccc(OCc6ccccn6)c(Cl)c5)c34)C2)C1 (stereo partly drawn) [Example 141, N-[3-chloro-4-(pyridin-2-ylmethoxy)phenyl]-7-{2-[(3S)-3-(dimethylamino)pyrrolidin-1-yl]ethyl}-5,6,7,8-tetrahydro[1]benzothieno[2,3-d]pyrimidin-4-amine]	< 5	< 5
COCCN1CCN(C(=O)CC2CCc3c(sc4ncnc(Nc5cccc(Br)c5)c34)C2)CC1 (stereo not drawn) [Example 91, N-(3-bromophenyl)-7-{2-[4-(2-methoxyethyl)-1-piperazinyl]-2-oxoethyl}-5,6,7,8-tetrahydro[1]benzothieno[2,3-d]pyrimidin-4-amine]	< 50	< 50
O=C(CC1CCc2c(sc3ncnc(Nc4cccc(Br)c4)c23)C1)N1CCCCC1 (stereo not drawn) [Example 71, N-(3-bromophenyl)-7-[2-oxo-2-(1-piperidinyl)ethyl]-5,6,7,8-tetrahydro[1]benzothieno[2,3-d]pyrimidin-4-amine]	< 50	< 50
Fc1ccc(Nc2ncnc3sc4c(c23)CCC(CN2CCOCC2)C4)cc1Cl (stereo not drawn) [Example 12, N-(3-chloro-4-fluorophenyl)-7-(4-morpholinylmethyl)-5,6,7,8-tetrahydro[1]benzothieno[2,3-d]pyrimidin-4-amine]	< 50	< 50
Brc1cccc(Nc2ncnc3sc4c(c23)CCC(CCn2ccnc2)C4)c1 (stereo not drawn) [Example 88, N-(3-bromophenyl)-7-[2-(1H-emidazol-1-yl)ethyl]-5,6,7,8-tetrahydro[1]benzothieno[2,3-d]pyrimidin-4-amine]	< 5	< 5
CN1CCN(CC2CCc3c(sc4ncnc(Nc5ccc(F)c(Cl)c5)c34)C2)CC1 (stereo not drawn) [Example 15, N-(3-chloro-4-fluorophenyl)-7-[(4-methyl-1-piperazinyl)methyl]-5,6,7,8-tetrahydro[1]benzothieno[2,3-d]pyrimidin-4-amine]	< 5	< 5
O=C(O)CC1CCc2c(sc3ncnc(Nc4ccc(F)c(Cl)c4)c23)C1 (stereo not drawn) [Example 72]	< 5	< 50
CN(C)[C@H]1CCN(CCC2CCc3c(sc4ncnc(Nc5ccc(OCc6cccc(F)c6)c(Cl)c5)c34)C2)C1 (stereo partly drawn) [Example 140, N-{3-chloro-4-[(3-fluorobenzyl)oxy]phenyl}-7-{2-[(3S)-3-(dimethylamino)pyrrolidin-1-yl]ethyl}-5,6,7,8-tetrahydro[1]benzothieno[2,3-d]pyrimidin-4-amine]	< 5	< 5
OCCN(CCO)CCC1CCc2c(sc3ncnc(Nc4ccc(OCc5ccccn5)c(Cl)c4)c23)C1 (stereo not drawn) [Example 179, 2,2′-{[2-(4-{[3-chloro-4-(pyridin-2-ylmethoxy)phenyl]amino}-5,6,7,8-tetrahydro[1]benzothieno[2,3-d]pyrimidin-7-yl)ethyl]imino}diethanol]	< 5	< 5

Now from value to compound:

IC50 [1] [µM]	IC50 [2] [µM]	SMILES
< 50	< 50	CCOC(=O)CC1CCc2c(sc3ncnc(Nc4ccc(Oc5ccc(C)nc5)c(C)c4)c23)C1 (stereo not drawn) [Example 213, ethyl [4-({3-methyl-4-[(6-methylpyridin-3-yl)oxy]phenyl}amino)-5,6,7,8-tetrahydro[1]benzothieno[2,3-d]pyrimidin-7-yl]acetate]
< 50	< 5	CN(C)CCC1CCc2c(sc3ncnc(Nc4ccc5c(cnn5Cc5ccccc5)c4)c23)C1 (stereo not drawn) [Example 228, N-(1-benzyl-1H-indazol-5-yl)-7-[2-(dimethylamino)ethyl]-5,6,7,8-tetrahydro[1]benzothieno[2,3-d]pyrimidin-4-amine]
< 50	< 5	Cc1ccc(Oc2ccc(Nc3ncnc4sc5c(c34)CCC(CCN(CCO)CCO)C5)cc2C)cn1 (stereo not drawn) [Example 231, 2,2′-({2-[4-({3-methyl-4-[(6-methylpyridin-3-yl)oxy]phenyl}amino)-5,6,7,8-tetrahydro[1]benzothieno[2,3-d]pyrimidin-7-yl]ethyl}imino)diethanol]
< 50	< 5	Fc1cccc(COc2ccc(Nc3ncnc4sc5c(c34)CCC(CCN3CCSCC3)C5)cc2Cl)c1 (stereo not drawn) [Example 199, N-{3-chloro-4-[(3-fluorobenzyl)oxy]phenyl}-7-(2-thiomorpholin-4-ylethyl)-5,6,7,8-tetrahydro[1]benzothieno[2,3-d]pyrimidin-4-amine]
< 50	< 5	c1ccc(Cn2ncc3cc(Nc4ncnc5sc6c(c45)CCC(CCN4CCCCC4)C6)ccc32)cc1 (stereo not drawn) [Example 239, (1-Benzyl-1H-indazol-5-yl)-[7-(2-piperidine-1-yl-ethyl)-5,6,7,8-tetrahydro-benzo[4,5]thieno[2,3-d]pyrimidin-4-yl]-amine]
< 5	< 5	CN(C)C1CCN(CCC2CCc3c(sc4ncnc(Nc5ccc6c(cnn6Cc6ccccc6)c5)c34)C2)C1 (stereo not drawn) [Example 207, N-(1-benzyl-1H-indazol-5-yl)-7-{2-[3-(dimethylamino)pyrrolidin-1-yl]ethyl}-5,6,7,8-tetrahydro[1]benzothieno[2,3-d]pyrimidin-4-amine]
< 5	< 5	OCCNCCC1CCc2c(sc3ncnc(Nc4ccc5c(cnn5Cc5ccccc5)c4)c23)C1 (stereo not drawn) [Example 206, 2-[(2-{4-[(1-benzyl-1H-indazol-5-yl)amino]-5,6,7,8-tetrahydro[1]benzothieno[2,3-d]pyrimidin-7-yl}ethyl)amino]ethanol]
< 50	< 5	Cc1ccc(Oc2ccc(Nc3ncnc4sc5c(c34)CCC(CCN(C)C)C5)cc2C)cn1 (stereo not drawn) [Example 226]
< 5	< 5	CS(=O)(=O)CCNCCC1CCc2c(sc3ncnc(Nc4ccc(OCc5cccc(F)c5)c(Cl)c4)c23)C1 (stereo not drawn) [Example 200, N-{3-chloro-4-[(3-fluorobenzyl)oxy]phenyl}-7-(2-{[2-(methylsulfonyl)ethyl]amino}ethyl)-5,6,7,8-tetrahydro[1]benzothieno[2,3-d]pyrimidin-4-amine]
< 5	< 5	OCCC1CCc2c(sc3ncnc(Nc4ccc5c(cnn5Cc5ccccc5)c4)c23)C1 (stereo not drawn) [Example 203, 2-[4-(1-Benzyl-1H-indazol-5-ylamino)-5,6,7,8-tetrahydro-benzo[4,5]thieno[2,3-d]pyrimidin-7-yl]-ethanol]
